{"source": "patent US20230031406A1", "about": "“COMPOUNDS AND COMPOSITIONS FOR TREATING CONDITIONS ASSOCIATED WITH NLRP ACTIVITY” (Novartis AG, priority 2018, published 2023)"}
{"tested_on": "PMA-differentiated THP-1 cells", "assay": "IL-1β production in PMA-differentiated THP-1 cells stimulated with gramicidin (hTHP-1 assay containing 2% fetal bovine serum; Procedures 1 and 2)", "format": "cell-based, human", "conditions": "Homo sapiens, THP-1, Table B3; hTHP-1 assay, 2% fetal bovine serum; class symbols; read-out: IC50", "how_it_was_run": "(§1)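 IL-1β release from PMA-differentiated THP-1 macrophage-like cells was triggered by 5 μM gramicidin for 2 h after 1 h compound exposure, then measured by HTRF.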", "units": {"IC50": "µM"}}
{"smiles": "Cc1c(C2(F)CC2)nc2c(c1NC(=O)N=S(N)(=O)c1cc(C(C)(C)O)cs1)CCC2", "note": "(single isomer, unassigned) [Example 683, (R) or (S)-N′-((2-(1-fluorocyclopropyl)-3-methyl-6,7-dihydro-5H-cyclopenta[b]pyridin-4-yl)carbamoyl)-4-(2-hydroxypropan-2-yl)thiophene-2-sulfonimidamide]", "IC50": "1 to 5"}
{"smiles": "Cc1c(C2(F)CC2)nc2c(c1NC(=O)N=S(N)(=O)c1sc(C(C)(C)O)cc1F)CCC2", "note": "(single isomer, unassigned) [Example 685, (R) or (S)-3-fluoro-N′-((2-(1-fluorocyclopropyl)-3-methyl-6,7-dihydro-5H-cyclopenta [b]pyridin-4-yl)carbamoyl)-5-(2-hydroxypropan-2-yl) thiophene-2-sulfonimidamide]", "IC50": "0.2 to 1"}
{"smiles": "CC(C)(O)c1cc(F)c(S(N)(=O)=NC(=O)Nc2cc(CC(F)(F)F)nc3c2CCC3)s1", "note": "(single isomer, unassigned) [Example 689, (R) or (S)-3-Fluoro-5-(2-hydroxypropan-2-yl)-N′-((2-(2,2,2-trifluoroethyl)-6,7-dihydro-5H-cyclopenta[b]pyridin-4-yl)carbamoyl)thiophene-2-sulfonimidamide]", "IC50": "1 to 5"}
{"smiles": "Cc1c(C(F)(F)F)nc2c(c1NC(=O)N=S(N)(=O)c1ccn(C)n1)CCC2", "note": "(single isomer, unassigned) [Example 693, (R) or (S)-1-Methyl-N′-((3-methyl-2-(trifluoromethyl)-6,7-dihydro-5H-cyclopenta[b]pyridin-4-yl)carbamoyl)-1H-pyrazole-3-sulfonimidamide]", "IC50": "1 to 5"}
{"smiles": "CC(C)c1nc2c(cc1NC(=O)N=S(N)(=O)c1cnc(C(C)(C)O)s1)CCC2", "note": "(single isomer, unassigned) [Example 701, (R) or (S)-2-(2-Hydroxypropan-2-yl)-N′-((2-isopropyl-6,7-dihydro-5H-cyclopenta[b]pyridin-3-yl)carbamoyl)thiazole-5-sulfonimidamide]", "IC50": "5 to 30"}
{"smiles": "Cc1c(C(F)(F)F)nc2c(c1NC(=O)N=S(N)(=O)c1cnc(C(C)(C)O)s1)CCC2C", "note": "(single isomer, unassigned) [Example 705, (S, R) or (S, S)-N′-((3,7-dimethyl-2-(trifluoromethyl)-6,7-dihydro-5H-cyclopenta[b]pyridin-4-yl)carbamoyl)-2-(2-hydroxypropan-2-yl)thiazole-5-sulfonimidamide]", "IC50": "5 to 30"}
{"tested_on": "PMA-differentiated THP-1 cells", "assay": "IL-1β production in PMA-differentiated THP-1 cells stimulated with gramicidin (hTHP-1 assay containing 2% fetal bovine serum; Procedures 1 and 2)", "format": "cell-based, human", "conditions": "Homo sapiens, THP-1, Table B3; hTHP-1 assay, 2% fetal bovine serum; numeric values; read-out: IC50", "how_it_was_run": "as §1", "units": {"IC50": "µM"}}
{"smiles": "Cc1c(C2(F)CC2)nc2c(c1NC(=O)N=S(N)(=O)c1cc(C(C)(C)O)cs1)CCC2", "note": "(single isomer, unassigned) [Example 684, (S) or (R)-N′-((2-(1-fluorocyclopropyl)-3-methyl-6,7-dihydro-5H-cyclopenta[b]pyridin-4-yl)carbamoyl)-4-(2-hydroxypropan-2-yl)thiophene-2-sulfonimidamide]", "IC50": "> 30"}
{"smiles": "Cc1c(C2(F)CC2)nc2c(c1NC(=O)N=S(N)(=O)c1sc(C(C)(C)O)cc1F)CCC2", "note": "(single isomer, unassigned) [Example 686, (S) or (R)-3-fluoro-N′-((2-(1-fluorocyclopropyl)-3-methyl-6,7-dihydro-5H-cyclopenta[b]pyridin-4-yl)carbamoyl)-5-(2-hydroxypropan-2-yl) thiophene-2-sulfonimidamide]", "IC50": "> 30"}
{"smiles": "CC(C)(O)c1cc(F)c(S(N)(=O)=NC(=O)Nc2cc(CC(F)(F)F)nc3c2CCC3)s1", "note": "(single isomer, unassigned) [Example 690, (S) or (R)-3-Fluoro-5-(2-hydroxypropan-2-yl)-N′-((2-(2,2,2-trifluoroethyl)-6,7-dihydro-5H-cyclopenta[b]pyridin-4-yl)carbamoyl)thiophene-2-sulfonimidamide]", "IC50": "> 30"}
{"smiles": "Cc1c(C(F)(F)F)nc2c(c1NC(=O)N=S(N)(=O)c1ccn(C)n1)CCC2", "note": "(single isomer, unassigned) [Example 694, (S) or (R)-1-Methyl-N′-((3-methyl-2-(trifluoromethyl)-6,7-dihydro-5H-cyclopenta[b]pyridin-4-yl)carbamoyl)-1H-pyrazole-3-sulfonimidamide]", "IC50": "> 30"}
{"smiles": "CC(C)c1nc2c(cc1NC(=O)N=S(N)(=O)c1cnc(C(C)(C)O)s1)CCC2", "note": "(single isomer, unassigned) [Example 702, (S) or (R)-2-(2-Hydroxypropan-2-yl)-N′-((2-isopropyl-6,7-dihydro-5H-cyclopenta[b]pyridin-3-yl)carbamoyl)thiazole-5-sulfonimidamide]", "IC50": "> 30"}
{"tested_on": "PMA-differentiated THP-1 cells", "assay": "IL-1β production in PMA-differentiated THP-1 cells stimulated with gramicidin (hTHP-1 assay containing 2% fetal bovine serum; Procedures 1 and 2)", "format": "cell-based, human", "conditions": "Table B3; hTHP-1 assay, 2% fetal bovine serum; class symbols; read-out: IC50", "how_it_was_run": "as §1", "units": {"IC50": "µM"}}
{"smiles": "NS(=O)(=NC(=O)Nc1c2c(nc3c1CCC31CC1)CCC2)c1nn(C(F)F)cc1F", "note": "(single isomer, unassigned) [Example 681, (R) or (S)-1-(difluoromethyl)-4-fluoro-N′-((1′,5′,6′,7′-tetrahydro-2′H-spiro[cyclopropane-1,3′-dicyclopenta[b,e]pyridin]-8′-yl)carbamoyl)-1H-pyrazole-3-sulfonimidamide]", "IC50": "0.04 to 0.2"}
{"smiles": "NS(=O)(=NC(=O)Nc1c2c(nc3c1CCC31CC1)CCC2)c1nn(C(F)F)cc1F", "note": "(single isomer, unassigned) [Example 682, (S) or (R)-1-(difluoromethyl)-4-fluoro-N′-((1′,5′,6′,7′-tetrahydro-2′H-spiro[cyclopropane-1,3′-dicyclopenta[b,e]pyridin]-8′-yl)carbamoyl)-1H-pyrazole-3-sulfonimidamide]", "IC50": "1 to 5"}
{"smiles": "CCn1ccc(S(N)(=O)=NC(=O)Nc2c3c(nc4c2CCC42CC2)CCC3)n1", "note": "(single isomer, unassigned) [Example 687, (R) or (S)-1-Ethyl-N′-((1′,5′,6′,7′-tetrahydro-2′H-spiro[cyclopropane-1,3′-dicyclopenta[b,e]pyridin]-8′-yl)carbamoyl)-1H-pyrazole-3-sulfonimidamide]", "IC50": "0.2 to 1"}
{"smiles": "CCn1ccc(S(N)(=O)=NC(=O)Nc2c3c(nc4c2CCC42CC2)CCC3)n1", "note": "(single isomer, unassigned) [Example 688, (S) or (R)-1-Ethyl-N′-((1′,5′,6′,7′-tetrahydro-2′H-spiro[cyclopropane-1,3′-dicyclopenta[b,e]pyridin]-8′-yl)carbamoyl)-1H-pyrazole-3-sulfonimidamide]", "IC50": "5 to 30"}
{"smiles": "CCn1ccc(S(N)(=O)=NC(=O)Nc2c(C)c(C(F)(F)F)nc3c2CCC3)n1", "note": "(single isomer, unassigned) [Example 691, (R) or (S)-1-Ethyl-N′-((3-methyl-2-(trifluoromethyl)-6,7-dihydro-5H-cyclopenta[b]pyridin-4-yl)carbamoyl)-1H-pyrazole-3-sulfonimidamide]", "IC50": "0.2 to 1"}
{"smiles": "CCn1ccc(S(N)(=O)=NC(=O)Nc2c(C)c(C(F)(F)F)nc3c2CCC3)n1", "note": "(single isomer, unassigned) [Example 692, (S) or (R)-1-Ethyl-N′-((3-methyl-2-(trifluoromethyl)-6,7-dihydro-5H-cyclopenta[b]pyridin-4-yl)carbamoyl)-1H-pyrazole-3-sulfonimidamide]", "IC50": "5 to 30"}
{"smiles": "NS(=O)(=NC(=O)Nc1c2c(nc(C3CC3)c1C1CC1)CCC2)c1ccn(C(F)F)n1", "note": "(single isomer, unassigned) [Example 695, (R) or (S)-N′-((2,3-dicyclopropyl-6,7-dihydro-5H-cyclopenta [b]pyridin-4-yl)carbamoyl)-1-(difluoromethyl)-1H-pyrazole-3-sulfonimidamide]", "IC50": "1 to 5"}
{"smiles": "NS(=O)(=NC(=O)Nc1c2c(nc(C3CC3)c1C1CC1)CCC2)c1ccn(C(F)F)n1", "note": "(single isomer, unassigned) [Example 696, (S) or (R)-N′-((2,3-dicyclopropyl-6,7-dihydro-5H-cyclopenta [b]pyridin-4-yl)carbamoyl)-1-(difluoromethyl)-1H-pyrazole-3-sulfonimidamide]", "IC50": "5 to 30"}
{"smiles": "CC(C)(O)c1cc(F)c(S(N)(=O)=NC(=O)Nc2c3c(nc(C4CC4)c2C2CC2)CCC3)s1", "note": "(single isomer, unassigned) [Example 697, (R) or (S)-N′-((2,3-dicyclopropyl-6,7-dihydro-5H-cyclopenta[b]pyridin-4-yl)carbamoyl)-3-fluoro-5-(2-hydroxypropan-2-yl) thiophene-2-sulfonimidamide]", "IC50": "0.04 to 0.2"}
{"smiles": "CC(C)(O)c1cc(F)c(S(N)(=O)=NC(=O)Nc2c3c(nc(C4CC4)c2C2CC2)CCC3)s1", "note": "(single isomer, unassigned) [Example 698, (S) or (R)-N′-((2,3-dicyclopropyl-6,7-dihydro-5H-cyclopenta[b]pyridin-4-yl)carbamoyl)-3-fluoro-5-(2-hydroxypropan-2-yl) thiophene-2-sulfonimidamide]", "IC50": "1 to 5"}
{"smiles": "CCn1ccc(S(N)(=O)=NC(=O)Nc2c3c(nc(C4CC4)c2C2CC2)CCC3)n1", "note": "(single isomer, unassigned) [Example 699, (R) or (S)-N′-((2,3-dicyclopropyl-6,7-dihydro-5H-cyclopenta[b]pyridin-4-yl)carbamoyl)-1-ethyl-1H-pyrazole-3-sulfonimidamide]", "IC50": "0.2 to 1"}
{"smiles": "CCn1ccc(S(N)(=O)=NC(=O)Nc2c3c(nc(C4CC4)c2C2CC2)CCC3)n1", "note": "(single isomer, unassigned) [Example 700, (S) or (R)-N′-((2,3-dicyclopropyl-6,7-dihydro-5H-cyclopenta[b]pyridin-4-yl)carbamoyl)-1-ethyl-1H-pyrazole-3-sulfonimidamide]", "IC50": "5 to 30"}
{"smiles": "Cc1c(C(F)(F)F)nc2c(c1NC(=O)N=S(N)(=O)c1cnc(C(C)(C)O)s1)CCC2C", "note": "(single isomer, unassigned) [Example 703, (R/S, S) or (R/S, R)-N′-((3,7-dimethyl-2-(trifluoromethyl)-6,7-dihydro-5H-cyclopenta[b]pyridin-4-yl)carbamoyl)-2-(2-hydroxypropan-2-yl)thiazole-5-sulfonimidamide]", "IC50": "1 to 5"}
{"smiles": "Cc1c(C(F)(F)F)nc2c(c1NC(=O)N=S(N)(=O)c1cnc(C(C)(C)O)s1)CCC2C", "note": "(single isomer, unassigned) [Example 704, (R/S, R) or (R/S, S)-N′-((3,7-dimethyl-2-(trifluoromethyl)-6,7-dihydro-5H-cyclopenta[b]pyridin-4-yl)carbamoyl)-2-(2-hydroxypropan-2-yl)thiazole-5-sulfonimidamide]", "IC50": "0.2 to 1"}
